# Measurements as given in patent US20060094763A1, “Polymorphic forms of 6-[2-(methylcarbomoyl) phenyl sulfanyl]-3-E-[2-(pyridin-2-yl)ethenyl]indazole” (Agouron Pharmaceuticals, Inc., priority 2004, published 2006).
# What was measured:
# [1] = Salt screening: solubility of in situ acid salts of Compound 1 in 100 mM acid solutions (HPLC); conditions: 100 mM acid solution, excess solid
# Method: To ensure that the maximum solubility level was reached, the samples were checked periodically to ensure that excess solid was present. After 8 days 400 μL of the mixture was removed and centrifuged at 14,000 rpm for 5 minutes. 100 μL of the supernatant was then removed, diluted with 900 μL of a 1:1 mixture of acetonitrile/methanol, and then analyzed by HPLC.
# [2] = Physical and chemical storage stability of polymorphic forms (heat, humidity); conditions: for Time stable: 40° C. under 75% relative humidity
# [3] = Aqueous solubility of polymorphic forms of Compound 1; format: physicochemical; conditions: for solubility: aqueous medium
# [4] = Human metabolites of Compound 1; conditions: in vivo
# Description: The chemical structures of three oxygenated metabolites, M12 (the sulfoxide of Compound 1), M15 (the sulfone of Compound 1) and M9 (a mixed sulfoxidized/N-oxidized product of Compound 1), were confirmed based on the comparison in chromatographic retention times and mass spectra of the in-vivo metabolites to their authentic reference standards. The chemical structure of the glucuronide (M7) of Compound 1 was confirmed by the isolation of the metabolite followed by NMR determination. […] The proposed structures (or elemental compositions) of M5 and its major fragment ions (m/z 342, 311, 265, and 237) were all highly consistent with the elemental compositions determined by accurate mass measurement (with mass measurement accuracy ≦1.2 ppm for all). The definitive structures of metabolites M8a, M12a and M14 are currently unknown.
compound,measurement,setting,value
Benzene sulfonic acid,Solubility 8 days,[1]; stirred 8 days in the dark,10 µg/mL
same,Solubility 14 days,[1]; stirred 14 days in the dark,11 µg/mL
"CNC(=O)c1ccccc1Sc1ccc2c(/C=C/c3ccccn3)n[nH]c2c1 [Form IV, 6-[2-(methylcarbamoyl)phenylsulfanyl]-3-E-[2-(pyridin-2-yl)ethenyl]indazole]",Time stable,[2],at least 30 days
same,Time physically and chemically stable,[2]; 80° C.,at least 30 days
same,solubility,"[3]; pH 1, simulated gastric fluid, pH 1",~550 µg/mL
same,solubility,"[3]; pH 4, aqueous buffer, pH 4",~6 µg/mL
same,solubility,"[3]; pH 8, aqueous buffer, pH 8",~2 µg/mL
same,Aqueous solubility,[3]; pH 2,about 157 μg/mL
same,Aqueous solubility,[3]; pH 6.5,about 2 μg/mL
"CNC(=O)c1ccccc1Sc1ccc2c(/C=C/c3ccccn3)n[nH]c2c1 [Form I, 6-[2-(methylcarbamoyl)phenylsulfanyl]-3-E-[2-(pyridin-2-yl)ethenyl]indazole]",Time stable,[2],at least 13 days
same,Chemical stability,[2]; 80° C.,chemically stable
same,solubility,"[3]; pH 2, simulated gastric fluid, pH 2",179 µg/mL
same,Aqueous solubility,[3]; pH 6.5,9 µg/mL
"CNC(=O)c1ccccc1Sc1ccc2c(/C=C/c3ccccn3)n[nH]c2c1 [Compound 1, 6-[2-(methylcarbamoyl)phenylsulfanyl]-3-E-[2-(pyridin-2-yl)ethenyl]indazole]",Metabolism in humans,[4],extensive metabolism
